The source of these data is patent US20020160441A1, “Protein elongation factor 2 as a target for antifungal and antiparasitic agents” (Merck & Co., Inc., priority 1998, published 2002).

For test [1], the system named is S. cerevisiae sordarin sensitive strain (sS1). Kind of test: Growth inhibition assay I, sordarin sensitive strain. Type of test: cell-based. As to conditions: Saccharomyces cerevisiae; 0.5 μg applied; agar plate, 30° C., 16-24 hours; read-out: clear zone of inhibition. From the text: (§1) An assay has been developed to identify antifungal compounds with sordarin like activities using S. cerevisiae as as a surrogate organism. It consists of a two plate differential zone assay using sordarin sensitive (sS1) and resistant strains (sR1) that contain an erg6 deletion, which increases membrane permeability and facilitates the uptake of various substances. In this screen, active compounds show a clear zone on the sensitive strain plate and no zone for the resistant strain plate.
(§2) Approximately 1×10^6 cells per ml are added to growth medium containing 2% agar. Medium and cells are mixed, poured into plates, and allowed to solidify. Test compounds or fermentation extracts are applied with the intent of identifying samples which inhibit the growth of these yeast. The cultures are incubated at 30° C. for 16-24 hours. A similar assay can also be run in a high-throughput microtiter format by inoculating cells into liquid growth medium containing test compounds or fermentation extracts. Active compounds can be identified by assaying for growth inhibition, which can be determined by measuring the optical density of the individual cultures.

The subject of test [2] is S. cerevisiae sordarin resistant strain (sR1). Kind of test: Growth inhibition assay I, sordarin resistant strain. As to conditions: 0.5 μg applied; agar plate, 30° C., 16-24 hours. The class given is cell-based, Saccharomyces cerevisiae.
Text: as §1, §2

Test [3] concerns the target T1, Saccharomyces cerevisiae EF2 in crude S30 extracts (Saccharomyces cerevisiae, UniProt P32324).
T1 construct: A Saccharomyces cerevisiae strain containing wild-type EF2 is inoculated into medium; endogenous in cells; host or cells: Saccharomyces cerevisiae strain with wild-type EF2, S30 extract
Kind of test: Competitive binding assay, Saccharomyces S30 extract. As to conditions: for displacement of ^3H-Compound I binding (in words): unlabelled competitor. Here is the method: (§3) A competitive assay can be performed involving the displacement of a radiolabeled compound with specificity for pathogen EF2 such as ^3H-Compound I binding to Saccharomyces cerevisiae EF2 in crude S30 extracts. As proof of the specificity of inhibitor found with the S30 binding assay, binding competition can also be performed with purified EF2 in the presence of washed ribosomes
In a microfuge tube 100 μl assay mixture contains: 10 μg yeast S-30, 25 μM GTP-γ-s (0.5 μl of 5 mM stock), dilutions of agent to be examined for ability to compete for binding and Buffer B to bring volume to 98 μl. Vortex and incubate at room temperature 5 min. Add 2 μl ^3H-Compound I (1:20 dilution in water). Vortex and incubate for 20-30 min.
To a Sephadex G-75 column was pre-soaked in Buffer A (20 gm/400 ml) several hours. Mini columns were packed with G-75 precisely to the mark line (˜1.6 ml ) and allowed to settle by washing with 2 ml Buffer A.
The 100μl incubated mixtures are loaded onto G-75 columns (no collection) As soon as the sample has entered the gel bed (approximately 20 sec), 0.7 ml Buffer A is added and eluate is collected in mini vials 3 ml Scintiverse is added and vials counted.
Saccharomyces S30 extract: A Saccharomyces cerevisiae strain containing wild-type EF2 is inoculated into medium containing in g/l: 10 g Bacto Yeast Extract, 20 g Bacto Peptone, 20 g dextrose and 60 mg adenine and incubated with shaking at 30° C. until mid to late logarithmic phase (A600˜2). The cells are harvested and washed twice with water. Pellets may be stored at −70° C. indefinitely prior to disruption. For breakage, cells are resuspended in 2 vol of buffer containing 50 mM Tris-Cl pH 7.4, 10% (wt/vol) glycerol, 2 mM MgCl2, 2 mM dithiothreitol, 1 mM phenylmethylsulfonyl fluoride and broken by prolonged agitation with acid-washed 0.5 mm glass beads. The supernatant is centrifuged at […] for 15 min to sediment cell debris.

For test [4], the target named is T2, rat EF2 (Rattus norvegicus, UniProt P05197).
T2 construct: from tissue; host or cells: rat liver
Kind of test: Binding assay with purified components, rat EF2. As to conditions: yeast EF2 replaced by rat (liver) EF2. On the procedure: (§4) This assay involves the same procedure as disclosed above substituting 0.4 A260 units salt-washed S. cerevisiae ribosomes and 1 pmol purified EF2 for the 10 μg S30 in the above assay. The ribosomes and EF2 are both prepared by published methods (L. Skogerson, Methods in Enzymology, Vol LX,p676-685).
(§5) As with the S30 binding assay, this assay may be used to either identify the component binding drug, or to examine competition by unknown agents.

In test [5] the test system is wheat germ S30 extracts. Put plainly: Binding assay with wheat germ S30 extracts.
Text: as §3
(§6) The binding is displaceable by unlabelled L-793,422, sordarin and analogs. No binding is seen with mammalian cell or wheat germ S30 extracts.

Test [6] addresses T3, purified Saccharomyces EF2 (Saccharomyces cerevisiae, UniProt P32324).
T3 construct: The ribosomes and EF2 are both prepared by published methods; endogenous in cells; host or cells: Saccharomyces cerevisiae; EF2 purified by the method of Skogerson, Methods in Enzymology LX
Put plainly: Binding assay with purified components, Saccharomyces EF2. As to conditions: for binding of labelled compound (in words): yeast EF2. On the procedure: as §4, §5

Test [7] concerns wheat germ EF2. Kind of test: Binding assay with purified components, wheat germ EF2. As to conditions: yeast EF2 replaced by wheat germ EF2. Here is the method:
as §4, §5

Test [8] deals with mammalian cell S30 extracts. Put plainly: Binding assay with mammalian cell S30 extracts.
Text: as §3, §6

T3 sequence (P32324 whole entry): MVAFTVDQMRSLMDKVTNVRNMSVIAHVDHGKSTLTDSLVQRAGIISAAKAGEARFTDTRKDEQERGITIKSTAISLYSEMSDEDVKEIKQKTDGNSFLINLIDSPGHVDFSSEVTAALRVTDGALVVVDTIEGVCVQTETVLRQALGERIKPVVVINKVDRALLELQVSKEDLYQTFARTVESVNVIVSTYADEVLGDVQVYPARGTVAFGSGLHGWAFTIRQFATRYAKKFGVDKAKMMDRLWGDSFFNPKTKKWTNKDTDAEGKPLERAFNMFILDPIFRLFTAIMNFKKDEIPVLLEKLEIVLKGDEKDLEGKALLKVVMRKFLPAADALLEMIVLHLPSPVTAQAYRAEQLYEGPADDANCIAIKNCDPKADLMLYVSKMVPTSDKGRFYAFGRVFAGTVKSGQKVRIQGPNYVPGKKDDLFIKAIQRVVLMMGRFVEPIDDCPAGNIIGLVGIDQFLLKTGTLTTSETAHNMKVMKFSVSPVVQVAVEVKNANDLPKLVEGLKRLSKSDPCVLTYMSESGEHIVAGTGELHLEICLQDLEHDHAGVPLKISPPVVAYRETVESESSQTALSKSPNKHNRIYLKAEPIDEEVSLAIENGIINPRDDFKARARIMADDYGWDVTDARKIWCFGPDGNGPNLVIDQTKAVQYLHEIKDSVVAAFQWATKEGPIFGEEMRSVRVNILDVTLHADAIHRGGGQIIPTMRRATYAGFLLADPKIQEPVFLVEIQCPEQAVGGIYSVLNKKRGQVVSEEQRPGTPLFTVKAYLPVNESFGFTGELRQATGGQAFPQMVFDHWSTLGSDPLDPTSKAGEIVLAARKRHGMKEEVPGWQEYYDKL
T1 sequence (P32324 whole entry): as above

A word on the zone of inhibition: it is the extent of the growth-free halo in a diffusion test. As usually defined, the IC50 is the point on the concentration scale where inhibition reaches its midpoint. With `CO[C@H]1[C@@H](O)[C@H](O)[C@H](OC[C@@]23C[C@@H]4[C@H](C)CC[C@H]4[C@@]4(C=O)CC2C=C(C(C)C)[C@@]34C(=O)O)O[C@@H]1C` [sordarin, reference compound], in test [1], the zone of inhibition at 0.5 µg/disc was 20 mm. In addition, in test [2], the “zone of inhibition (in words)” value is “no zone”. Besides, the half-maximal inhibitory concentration (IC50) in test [3] (10 μg S30 extract from wild-type Saccharomyces, read-out: IC50 for displacement of ^3H-Compound I binding (converted)) was 6.09 nM. The “displacement of ^3H-Compound I binding (in words)” value in test [3] (Saccharomyces S30 extracts) is on record as “displaceable”.
On to `CC(C)COCC12CC3C(C)CCC3[C@@]3(C=O)C[C@@H]1C=C(C(C)C)[C@@]23C(=O)O` (stereo partly drawn) [Compound I], for which, in test [3] (Saccharomyces S30 extracts), the “displacement of ^3H-Compound I binding (in words)” value was “displaceable”.
For the molecule `CC(C)COCC12CC3C(C)CCC3[C@@]3(C=O)C[C@@H]1C=C(C(C)C)[C@@]23C(=O)O` (stereo partly drawn) [^3H-Compound I], the “binding of labelled compound (in words)” value in test [4] (listed as 3H-L793,422) was “abolishes binding”; in test [4] (listed as labelled compound), “abolishes binding to background levels”; in test [5], “No binding”; in test [6] (yeast ribosomes replaced by rat (liver) ribosomes, listed as 3H-L793,422) it was “no effect on binding”; in test [6] (yeast ribosomes replaced by rat (liver) ribosomes, listed as labelled compound) it was “does not reduce binding”; in test [6] (yeast ribosomes replaced by wheat germ ribosomes, listed as 3H-L793,422), “no effect on binding”. For the same molecule, the “binding of labelled compound (in words)” value in test [6] (yeast ribosomes replaced by wheat germ ribosomes, listed as labelled compound) is “does not reduce binding”; in test [7] (listed as 3H-L793,422) it was “abolishes binding”; in test [7] (listed as labelled compound), “abolishes binding to background levels”; in test [8] it was “No binding”; in test [3] (Saccharomyces S30 extracts) it was “Specific binding”. The entries for the “amount of labelled compound bound” value in test [6] (0.65 pmol purified Saccharomyces EF2 plus 4 pmol purified Saccharomyces ribosomes) and in test [3] (10 μg S30 extract from wild-type Saccharomyces) were “approximately 0.6 pmol” and “approximately 0.5 pmol”, respectively.
